Where two headings read alike, the source gives them in different places.
Tests used:
JeKo-1 cells = test: Antiproliferative effect, MTS cell viability assay, JeKo-1 cells; assay type: cell-based; conditions: Homo sapiens; JeKo-1 mantle cell lymphoma cells; read-out: IC50 (anti-proliferation) JeKO-1 cells
Procedure, shortened: (§1)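 Tested at six concentrations (0 to 10 μM in tenfold steps), 72 h; viability by MTS, A490.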

Mino cells = test: Antiproliferative effect, MTS cell viability assay, Mino cells; assay type: cell-based; conditions: Homo sapiens, MINO, Mino mantle cell lymphoma cells; read-out: IC50 (anti-proliferation) Mino cells
Procedure, shortened: as §1

BTK = BTK (Homo sapiens, UniProt Q06187); test: Degradation of BTK protein in Namalwa cells (Western blot; DC50, Dmax); conditions: for DC50: cell line not given
[1] = read-out: DC50 (BTK degradation), concentration giving 50% reduction of BTK expression level
[2] = read-out: Dmax (BTK degradation)

Sequence of BTK (Q06187 whole entry): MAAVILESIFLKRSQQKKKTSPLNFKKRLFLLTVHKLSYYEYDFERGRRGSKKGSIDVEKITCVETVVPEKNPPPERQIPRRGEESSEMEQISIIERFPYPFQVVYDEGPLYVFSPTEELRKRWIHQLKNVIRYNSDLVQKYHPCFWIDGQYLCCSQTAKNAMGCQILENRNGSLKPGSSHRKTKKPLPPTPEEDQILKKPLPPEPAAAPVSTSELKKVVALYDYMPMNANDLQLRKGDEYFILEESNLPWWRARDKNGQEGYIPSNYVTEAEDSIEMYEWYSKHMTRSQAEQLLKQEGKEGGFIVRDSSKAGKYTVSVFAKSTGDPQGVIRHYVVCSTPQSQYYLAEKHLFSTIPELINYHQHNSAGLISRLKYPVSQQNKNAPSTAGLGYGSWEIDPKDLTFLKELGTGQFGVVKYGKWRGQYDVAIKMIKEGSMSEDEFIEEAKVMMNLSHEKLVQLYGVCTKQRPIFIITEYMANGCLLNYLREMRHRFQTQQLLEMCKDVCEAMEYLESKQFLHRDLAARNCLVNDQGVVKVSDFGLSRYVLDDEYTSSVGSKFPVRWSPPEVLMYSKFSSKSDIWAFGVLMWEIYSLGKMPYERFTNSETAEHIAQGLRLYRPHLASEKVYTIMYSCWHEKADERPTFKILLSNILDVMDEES

Row | SMILES | IC50 (JeKo-1 cells) [nM] | IC50 (Mino cells) [nM] | Dmax (BTK) [%] | DC50 (BTK; BTK degradation) [nM] | DC50 (BTK; [1]) [nM] | Dmax (BTK; [2]) [%]
1 | Nc1ncnc2c1c(-c1ccc(Oc3ccccc3)cc1)nn2C1CCN(C2CCN(C(=O)N3CCC(CCCN4CCC(c5ccc6c(c5)C(=O)N(C5CCC(=O)NC5=O)C6=O)CC4)CC3)CC2)CC1 (centres unmarked) [Compound 267, 5-(1-(3-(1-(4-(4-amino-3-(4-phenoxyphenyl)-1H-pyrazolo[3,4-d]pyrimidin-1-yl)-[1,4′-bipiperidine]-1′-carbonyl)piperidin-4-yl)propyl)piperidin-4-yl)-2-(2,6-dioxopiperidin-3-yl)isoindoline-1,3-dione] | 1000 to 10000 | 1000 to 10000 | > 90 | 10 to 50 | – | –
2 | Nc1ncnc2c1c(-c1ccc(Oc3ccccc3)cc1)nn2C1CCN(CCN2CCC(CN3CCC(c4ccc5c(c4)oc(=O)n5C4CCC(=O)NC4=O)CC3)CC2)CC1 (centres unmarked) [Compound 545, 3-(6-(1-((1-(2-(4-(4-amino-3-(4-phenoxyphenyl)-1H-pyrazolo[3,4-d]pyrimidin-1-yl)piperidin-1-yl)ethyl)piperidin-4-yl)methyl)piperidin-4-yl)-2-oxobenzo[d]oxazol-3(2H)-yl)piperidine-2,6-dione] | 1000 to 10000 | < 1000 | – | – | 10 to 50 | > 90
3 | Nc1ncnc2c1c(-c1ccc(Oc3ccccc3)cc1)nn2C1CCN(C2CCN(CC3CN(c4ccc5c(c4)CN(C4CCC(=O)NC4=O)C5=O)C3)C2)CC1 (centres unmarked) [Compound 426, 3-(5-(3-((3-(4-(4-amino-3-(4-phenoxyphenyl)-1H-pyrazolo[3,4-d]pyrimidin-1-yl)piperidin-1-yl)pyrrolidin-1-yl)methyl)azetidin-1-yl)-1-oxoisoindolin-2-yl)piperidine-2,6-dione] | < 1000 | < 1000 | – | – | 10 to 50 | > 90
4 | Nc1ncnc2c1c(-c1ccc(Oc3ccccc3)cc1)nn2C1CCN(C2CCN(CCCC#Cc3ccc(N4CCC(=O)NC4=O)cc3)C2)CC1 (centres unmarked) [Compound 537, 1-(4-(5-(3-(4-(4-amino-3-(4-phenoxyphenyl)-1H-pyrazolo[3,4-d]pyrimidin-1-yl)piperidin-1-yl)pyrrolidin-1-yl)pent-1-yn-1-yl)phenyl)dihydropyrimidine-2,4(1H,3H)-dione] | > 10000 | > 10000 | – | – | > 50 | > 50
5 | Nc1ncnc2c1c(-c1ccc(Oc3ccccc3)cc1)nn2C1CCN(CCN2CCC(CN3CCN(c4ccc5c(c4)CN(C4CCC(=O)NC4=O)C5=O)CC3)CC2)CC1 (centres unmarked) [Compound 454, 3-(5-(4-((1-(2-(4-(4-amino-3-(4-phenoxyphenyl)-1H-pyrazolo[3,4-d]pyrimidin-1-yl)piperidin-1-yl)ethyl)piperidin-4-yl)methyl)piperazin-1-yl)-1-oxoisoindolin-2-yl)piperidine-2,6-dione] | 1000 to 10000 | > 10000 | – | – | > 50 | > 50
6 | NC(=O)c1c(-c2ccc(Oc3ccccc3)cc2)nn2c1NCC[C@H]2C1CCN(C(=O)N2CCN(CCN3CCN(c4ccc5c(c4)CN(C4CCC(=O)NC4=O)C5=O)CC3)CC2)CC1 (stereo partly drawn) [Compound 298, (7S)-7-(1-(4-(2-(4-(2-(2,6-dioxopiperidin-3-yl)-1-oxoisoindolin-5-yl)piperazin-1-yl)ethyl)piperazine-1-carbonyl)piperidin-4-yl)-2-(4-phenoxyphenyl)-4,5,6,7-tetrahydropyrazolo[1,5-a]pyrimidine-3-carboxamide] | 1000 to 10000 | 1000 to 10000 | > 90 | 10 to 50 | – | –
7 | Nc1ncnc2c1c(-c1ccc(Oc3ccccc3)cc1)nn2[C@@H]1CCCN(C(=O)N2CC(N3CCN(c4ccc5c(c4)C(=O)N([C@H]4CCC(=O)NC4=O)C5=O)CC3)C2)C1 [Compound 489, 5-(4-(1-((R)-3-(4-amino-3-(4-phenoxyphenyl)-1H-pyrazolo[3,4-d]pyrimidin-1-yl)piperidine-1-carbonyl)azetidin-3-yl)piperazin-1-yl)-2-((S)-2,6-dioxopiperidin-3-yl)isoindoline-1,3-dione] | < 1000 | < 1000 | – | – | < 10 | > 90
8 | Nc1ncnc2c1c(-c1ccc(Oc3ccccc3)cc1)nn2[C@@H]1CCCN(C2CCN(CC3CCN(c4ccc(C(=O)NC5CCC(=O)NC5=O)cc4)CC3)CC2)C1 (stereo partly drawn) [Compound 516, 4-(4-(((R)-3-(4-amino-3-(4-phenoxyphenyl)-1H-pyrazolo[3,4-d]pyrimidin-1-yl)-[1,4′-bipiperidin]-1′-yl)methyl)piperidin-1-yl)-N-(2,6-dioxopiperidin-3-yl)benzamide] | < 1000 | 1000 to 10000 | – | – | < 10 | > 75
9 | Nc1ncnc2c1c(-c1ccc(Oc3ccccc3)cc1)nn2C1CCN(CC2CCN(CC3CN(c4ccc5c(c4)CN(C4CCC(=O)NC4=O)C5=O)C3)C2)CC1 (centres unmarked) [Compound 424, 3-(5-(3-((3-((4-(4-amino-3-(4-phenoxyphenyl)-1H-pyrazolo[3,4-d]pyrimidin-1-yl)piperidin-1-yl)methyl)pyrrolidin-1-yl)methyl)azetidin-1-yl)-1-oxoisoindolin-2-yl)piperidine-2,6-dione] | < 1000 | < 1000 | – | – | 10 to 50 | > 90
10 | NC(=O)c1c(-c2ccc(Oc3ccccc3)cc2)nn2c1NCC[C@H]2C1CCN(CC2CCN(C(=O)N3CCC(CN4CCC(c5ccc6c(c5)C(=O)N(C5CCC(=O)NC5=O)C6=O)CC4)CC3)CC2)CC1 (stereo partly drawn) [Compound 415, (7S)-7-(1-((1-(4-((4-(2-(2,6-dioxopiperidin-3-yl)-1,3-dioxoisoindolin-5-yl)piperidin-1-yl)methyl)piperidine-1-carbonyl)piperidin-4-yl)methyl)piperidin-4-yl)-2-(4-phenoxyphenyl)-4,5,6,7-tetrahydropyrazolo[1,5-a]pyrimidine-3-carboxamide] | 1000 to 10000 | < 1000 | – | – | 10 to 50 | > 75
11 | Nc1ncnc2c1c(-c1ccc(Oc3ccccc3)cc1)nn2C1CCN(C2CCN(C(=O)N3CCC(N4CCN(c5ccc6c(c5)CN(C5CCC(=O)NC5=O)C6=O)CC4)CC3)CC2)CC1 (centres unmarked) [Compound 232, 3-(5-(4-(1-(4-(4-amino-3-(4-phenoxyphenyl)-1H-pyrazolo[3,4-d]pyrimidin-1-yl)-[1,4′-bipiperidine]-1′-carbonyl)piperidin-4-yl)piperazin-1-yl)-1-oxoisoindolin-2-yl)piperidine-2,6-dione] | 1000 to 10000 | 1000 to 10000 | > 90 | < 10 | – | –
12 | Nc1ncnc2c1c(-c1ccc(Oc3ccccc3)cc1)nn2[C@@H]1CCCN(CCNC(=O)N2CCN(c3ccc4c(c3)C(=O)N(C3CCC(=O)NC3=O)C4=O)CC2)C1 (stereo partly drawn) [Compound 526, N-(2-((R)-3-(4-amino-3-(4-phenoxyphenyl)-1H-pyrazolo[3,4-d]pyrimidin-1-yl)piperidin-1-yl)ethyl)-4-(2-(2,6-dioxopiperidin-3-yl)-1,3-dioxoisoindolin-5-yl)piperazine-1-carboxamide] | 1000 to 10000 | 1000 to 10000 | – | – | < 10 | > 90
13 | Nc1ncnc2c1c(-c1ccc(Oc3ccccc3)cc1)nn2C1CCN(C2CCN(C(=O)N3CCN(c4ccc5c(c4)C(=O)N(C4CCC(=O)NC4=O)C5=O)CC3)CC2)CC1 (centres unmarked) [Compound 229, 5-(4-(4-(4-amino-3-(4-phenoxyphenyl)-1H-pyrazolo[3,4-d]pyrimidin-1-yl)-[1,4′-bipiperidine]-1′-carbonyl)piperazin-1-yl)-2-(2,6-dioxopiperidin-3-yl)isoindoline-1,3-dione] | 1000 to 10000 | > 10000 | > 50 | > 50 | – | –
14 | Nc1ncnc2c1c(-c1ccc(Oc3ccccc3)cc1)nn2C1CCN([C@@H]2CCN(CC3CN(c4ccc5c(c4)C(=O)N(C4CCC(=O)NC4=O)C5=O)C3)C2)CC1 (stereo partly drawn) [Compound 425a, 5-(3-(((R)-3-(4-(4-amino-3-(4-phenoxyphenyl)-1H-pyrazolo[3,4-d]pyrimidin-1-yl)piperidin-1-yl)pyrrolidin-1-yl)methyl)azetidin-1-yl)-2-(2,6-dioxopiperidin-3-yl)isoindoline-1,3-dione] | 1000 to 10000 | 1000 to 10000 | – | – | 10 to 50 | > 90
15 | Nc1ncnc2c1c(-c1ccc(Oc3ccccc3)cc1)nn2C1CCN(C2CCN(CCCN3CCN(c4ccc5c(c4)CN(C4CCC(=O)NC4=O)C5=O)CC3)CC2)CC1 (centres unmarked) [Compound 222, 3-(5-(4-(3-(4-(4-amino-3-(4-phenoxyphenyl)-1H-pyrazolo[3,4-d]pyrimidin-1-yl)-[1,4′-bipiperidin]-1′-yl)propyl)piperazin-1-yl)-1-oxoisoindolin-2-yl)piperidine-2,6-dione] | 1000 to 10000 | 1000 to 10000 | > 90 | 10 to 50 | – | –
16 | Nc1ncnc2c1c(-c1ccc(Oc3ccccc3)cc1)nn2[C@@H]1CCCN(C(=O)N2CC(N3CCN(c4ccc5c(c4)CN(C4CCC(=O)NC4=O)C5=O)CC3)C2)C1 (stereo partly drawn) [Compound 488, 3-(5-(4-(1-((R)-3-(4-amino-3-(4-phenoxyphenyl)-1H-pyrazolo[3,4-d]pyrimidin-1-yl)piperidine-1-carbonyl)azetidin-3-yl)piperazin-1-yl)-1-oxoisoindolin-2-yl)piperidine-2,6-dione] | < 1000 | < 1000 | – | – | < 10 | > 90
17 | Nc1ncnc2c1c(-c1ccc(Oc3ccccc3)cc1)nn2C1CCN(CCCCC#Cc2ccc(N3CCC(=O)NC3=O)cc2)CC1 [Compound 539, 1-(4-(6-(4-(4-amino-3-(4-phenoxyphenyl)-1H-pyrazolo[3,4-d]pyrimidin-1-yl)piperidin-1-yl)hex-1-yn-1-yl)phenyl)dihydropyrimidine-2,4(1H,3H)-dione] | > 10000 | > 10000 | – | – | > 50 | > 50
